Data: patent US20230279482A1, “COMPOSITIONS, METHODS AND USES FOR QUANTIFYING TRANSCRIPTION AND BIOSENSING OF SMALL MOLECULES USING A NOVEL TYPE VI CRISPR-CAS ASSAY” (THE REGENTS OF THE UNIVERSITY OF COLORADO, A BODY CORPORATE, priority 2020, published 2023)

System: crcB fluoride riboswitch
Assay: SPRINT assay with fluoride riboswitch
Format: biochemical, B. cereus
Method: SPRINT reactions. Pentauridine RNA oligonucleotides were labeled with carboxyfluorescein (FAM) or TEX 615 at the 5′-end and with Iowa Black FQ at the 3′-end. Fluorescence measurements were taken at wavelengths 490/525 nm (excitation/emission) when the FAM fluorophore was used. In reactions with flavin-containing ligands, TEX-labeled RNA oligos were used at the wavelengths 576/615 (excitation/emission). Fluorescence measurements were taken every 5 minutes.
For exemplary SPRINT assays, a master mix was first prepared and then mixed with the remaining reaction reagent components to yield a final reaction volume of 30 μL; fluorescent readings of the entire reaction volume were performed in Corning 384 Flat Bottom Black Polystyrol plates. This master mix (SPRINT buffer, 10×), for assays contemplated herein can include, but is not limited to: 700 mM Tris-HCl, pH 8.0, 700 mM NaCl, 1 mM EDTA, 140 mM β-mercaptoethanol, and 25 mM MgCl2. Aliquots of an exemplary 10× SPRINT buffer were stored at −20° C. and not allowed to undergo more than 10 freeze-thaw cycles.
The B. cereus crcB fluoride riboswitch is a regulatory switch that turns on expression of the fluoride efflux pump crcB via selectively binding fluoride over chloride. […] This may be explained in part by an observed inhibition of the assay at fluoride concentrations above 100 μM. […]

[F-].[Na+] [fluoride, sodium fluoride]
EC50 (FIG. 4C, read-out: T50 value): 11 ± 1 µM
fluoride concentration at which inhibition of the assay is observed (one-batch SPRINT): above 100 μM
